Key:
[1] = biological target: CDK6/Cyclin D3 (Homo sapiens (Human), UniProt Q00534); test: CDK6/Cyclin D3 ADP-Glo Kinase Assay; format: biochemical; conditions: 100 uM ATP, read-out: CDK6/ CyclinD3 IC50
Procedure: CDK6/Cyclin D3 ADP-Glo Kinase Assay
The purpose of the CDK6/Cyclin D3 assay is to evaluate the inhibition (% inhibition and IC50 values) in the presence of small molecule inhibitors by using a Luminescent based ADP-Glo assay. CDK6/Cyclin D3 catalyzes the production of ADP from ATP. ADP-Glo assay monitors ADP producing biochemical reactions. ADP-Glo is performed in 2 steps upon completion of kinase reaction: a combined termination of kinase reaction and depletion of remaining ATP in the first step, and conversion of generated ADP to […] and the newly produced ATP to light output using luciferase/luciferin reaction in the second step. The luminescent signal generated is proportional to the ADP concentration produced and is correlated with the kinase activity CDK6/Cyclin D3 was purchased from Carna. […] The assay was initiated with the addition of ATP-containing substrate solution, following a 30-minute pre-incubation of enzyme and inhibitor at room temperature in the reaction mixture. The reaction was stopped after 90 minutes at room temperature by the addition of 10 uL of ADP-GLO Reagent. After a 90-minute incubation, 20 uL of Kinase Detection Reagent was added. Samples were incubated for 40 minutes, after which plate well luminescence was measured on a Envision microplate reader. The IC50 determinations were made from a plot of the fractional velocity as a function of inhibitor concentration fit to the 4 parameters IC50 equation.

[2] = test system: OVCAR-3 cells; test: Cell Growth Inhibition, OVCAR-3 (CellTiterGlo, 6 days); format: cell-based; conditions: Homo sapiens, 144 h, OVCAR-3, 6-day treatment
Excerpt: (§1) MCF-7 and OVCAR-3 cells were used to evaluate the anti-proliferation activity of the CDK inhibitors. MCF-7 (ATCC, HTB-22) cells are epithelial cells from a patient with ER+ metastatic adenocarcinoma. OVCAR-3 (ATCC, HTB-161) cells were derived from malignant ascites of a patient with ovarian cancer and are known to have CCNE1 amplification. Both cell lines were maintained in RPMI media supplemented with 10% fetal bovine serum. For cell growth inhibition assay, CDK inhibitors in DMSO solution were dispensed with either Echo 655 (Beckman Coulter) or Tecan D300e (HP) into 384-well plates (Corning #3765) and the 384-well plates were UV-sterilized prior to the assay. The inhibitors were typically tested in the 10-10,000 nM concentration range with half-log serial dilutions. MCF-7 or OVCAR-3 (500 cells/30 μL/well) were added to each well using Multidrop Combi (ThermoFisher) using standard cassettes. The assay plates with cells were cultured at 37° C., 5% CO2 for 6 days. At the end of the 6-day treatment, 30 μL of CellTiterGlo 2.0 (Promega) was added to each well and the luminescent signal was read using CLARIOstar plus (BMG). The percentage of cell growth inhibition (% CGI) was calculated using the following formula 00 CGI=100-100×luminescencesampie/luminescencecontroi. The half maximal inhibitory concentration (IC50) was determined by nonlinear curve fitting (four parameters, variable slope).

[3] = test system: MCF-7 cells; test: Cell Growth Inhibition, MCF-7 (CellTiterGlo, 6 days); format: cell-based; conditions: Homo sapiens, MCF7, 144 h, MCF-7, 6-day treatment
Excerpt: as §1

[4] = biological target: CDK4/Cyclin D1 (Homo sapiens (Human), UniProt P11802); test: CDK4/Cyclin D1 CHEF Assay (AQT0258 peptide); format: biochemical; conditions: 200 uM ATP, read-out: CDK4/ CyclinD1 AQT IC50
Excerpt: CDK4/Cyclin D1 CHEF Assay
The purpose of CDK4/Cyclin D1 assay is to evaluate the inhibition (% inhibition and IC50 values) of small molecule inhibitors by using a Chelation-Enhance Fluorescence (CHEF) assay. In a CHEF assay, phosphorylation of a peptide substrate results in proportional increase in fluorescence. CHEF kinase assay use peptide substrates containing a synthetic alpha-amino acid with a side chain bearing an 8-hydroxyquinoline derivative (sulfonamido-oxide, Sox). Upon phosphorylation of a nearby serine, threonine or tyrosine and in the presence of Mg(II), the spectral properties of the Sox residue are altered, emitting 485 nm wavelength light when excited with a 360 nm wavelength light source. CDK4/Cyclin D1 catalyzes the phosphoryl transfer to the SOX-labeled substrate peptide AQT0258 from Assayquant Technologies. […] The reaction was initiated with the addition of substrate solution, following a 30-minute pre-incubation of enzyme and inhibitor at 22° C. in the reaction mix. Reactions were allowed to proceed for 3 hrs at 22° C., followed by fluorescence read of the reaction. The IC50 determinations were made from a plot of the fractional velocity as a function of inhibitor concentration fit to the 4 parameters IC50 equation.

[5] = biological target: CDK1/Cyclin B1 (Homo sapiens (Human), UniProt P06493); test: CDK1/Cyclin B1 ADP-Glo Kinase Assay; format: biochemical; conditions: ADP-Glo, 80 uM ATP; read-out: CDK1 Cyclin B1 IC50
Procedure: CDK1/Cyclin B1 ADP-Glo Kinase Assay
(§2) The purpose of CDK1/Cyclin B1 assay is to evaluate the inhibition (% inhibition and IC50 values) of small molecule inhibitors by using a Luminescent based ADP-Glo assay. CDK1/Cyclin B1 catalyzes the production of ADP from ATP. ADP-Glo assay monitors ADP producing biochemical reactions. ADP-Glo is performed in 2 steps upon completion of kinase reaction: a combined termination of kinase reaction and depletion of remaining ATP in the first step, and conversion of generated ADP to ATP and the newly produced ATP to light output using luciferase/luciferin reaction in the second step. The luminescent signal generated is proportional to the ADP concentration produced and is correlated with the kinase activity. CDK1/Cyclin B1 was purchased from Carna (Cat 04-102). […] The assay was initiated with the addition of ATP-containing substrate solution, following a 30-minute pre-incubation of enzyme and inhibitor at room temperature in the reaction mixture. The reaction was stopped after 90 minutes at room temperature by the addition of 10 uL of ADP-GLO Reagent. After a 90 minute incubation, 20 uL of Kinase Detection Reagent was added. Samples were incubated for 40 minutes, after which plate well luminescence was measured on a Envision microplate reader. The IC50 determinations were made from a plot of the fractional velocity as a function of inhibitor concentration fit to the 4 parameters IC50 equation.

[6] = biological target: CDK2/Cyclin E1 (Homo sapiens (Human), UniProt P24941); test: CDK2/Cyclin E1 Full length ADP-Glo Kinase Assay; format: biochemical; conditions: 20 uM ATP, read-out: CDK2/ CyclinE1 IC50
Procedure: CDK2/Cyclin E1 Full length ADP-Glo Kinase Assay
as §2, with “of CDK2/Cyclin E1” for “of CDK1/Cyclin B1”, “assay. CDK2/Cyclin E1 full length” for “assay. CDK1/Cyclin B1”, “activity. CDK2/Cyclin E1” for “activity. CDK1/Cyclin B1”, “from Eurofins” for “from Carna”, “(Cat 14-475M).” for “(Cat 04-102).”

CDK1/Cyclin B1, sequence (P06493 whole entry): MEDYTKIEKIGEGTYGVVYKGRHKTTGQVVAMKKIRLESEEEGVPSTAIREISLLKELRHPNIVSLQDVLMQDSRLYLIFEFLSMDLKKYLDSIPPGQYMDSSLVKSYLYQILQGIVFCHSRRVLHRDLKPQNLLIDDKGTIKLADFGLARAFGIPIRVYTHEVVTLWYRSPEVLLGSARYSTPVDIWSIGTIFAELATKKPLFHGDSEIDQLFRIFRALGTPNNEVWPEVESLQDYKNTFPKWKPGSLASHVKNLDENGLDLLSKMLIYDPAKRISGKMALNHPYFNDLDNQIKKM
CDK1/Cyclin B1, sequence (P14635 whole entry partner): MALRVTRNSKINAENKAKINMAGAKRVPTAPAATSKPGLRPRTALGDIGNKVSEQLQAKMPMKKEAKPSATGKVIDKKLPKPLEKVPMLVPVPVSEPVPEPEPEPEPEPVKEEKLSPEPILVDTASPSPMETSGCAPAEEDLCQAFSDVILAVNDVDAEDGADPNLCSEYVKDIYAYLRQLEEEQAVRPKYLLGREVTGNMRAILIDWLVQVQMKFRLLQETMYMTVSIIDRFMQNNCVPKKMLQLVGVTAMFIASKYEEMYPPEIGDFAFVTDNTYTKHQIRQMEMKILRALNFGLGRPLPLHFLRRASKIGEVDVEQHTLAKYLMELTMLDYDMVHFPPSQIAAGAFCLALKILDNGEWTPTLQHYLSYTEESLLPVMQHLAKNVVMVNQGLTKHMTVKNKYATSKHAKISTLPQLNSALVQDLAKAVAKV
CDK4/Cyclin D1, sequence (P11802 whole entry): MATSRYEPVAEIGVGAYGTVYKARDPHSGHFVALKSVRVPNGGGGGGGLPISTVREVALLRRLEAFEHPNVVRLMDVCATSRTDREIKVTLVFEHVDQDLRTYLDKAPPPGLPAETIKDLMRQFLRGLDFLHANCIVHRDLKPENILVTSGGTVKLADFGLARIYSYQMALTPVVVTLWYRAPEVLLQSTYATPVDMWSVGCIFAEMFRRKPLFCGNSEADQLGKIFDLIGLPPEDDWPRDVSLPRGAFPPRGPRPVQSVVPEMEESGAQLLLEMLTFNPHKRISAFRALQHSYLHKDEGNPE
CDK4/Cyclin D1, sequence (P24385 whole entry partner): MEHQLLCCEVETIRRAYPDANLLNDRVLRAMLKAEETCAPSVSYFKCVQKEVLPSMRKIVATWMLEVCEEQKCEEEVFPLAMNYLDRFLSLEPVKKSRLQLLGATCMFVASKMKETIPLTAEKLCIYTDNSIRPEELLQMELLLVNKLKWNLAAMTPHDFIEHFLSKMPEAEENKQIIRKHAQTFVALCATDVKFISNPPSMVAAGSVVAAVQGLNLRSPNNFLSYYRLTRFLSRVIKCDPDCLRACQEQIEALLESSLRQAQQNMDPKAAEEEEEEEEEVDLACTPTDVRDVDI
CDK6/Cyclin D3, sequence (Q00534 whole entry): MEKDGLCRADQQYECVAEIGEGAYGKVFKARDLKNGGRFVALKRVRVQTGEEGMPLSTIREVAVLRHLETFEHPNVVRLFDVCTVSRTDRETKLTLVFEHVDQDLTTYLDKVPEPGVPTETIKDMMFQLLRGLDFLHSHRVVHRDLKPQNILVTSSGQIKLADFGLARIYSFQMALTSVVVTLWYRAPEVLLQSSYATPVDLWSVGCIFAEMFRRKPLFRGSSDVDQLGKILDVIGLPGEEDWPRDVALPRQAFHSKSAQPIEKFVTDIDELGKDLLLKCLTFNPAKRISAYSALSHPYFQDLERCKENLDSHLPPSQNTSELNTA
CDK6/Cyclin D3, sequence (P30281 whole entry partner): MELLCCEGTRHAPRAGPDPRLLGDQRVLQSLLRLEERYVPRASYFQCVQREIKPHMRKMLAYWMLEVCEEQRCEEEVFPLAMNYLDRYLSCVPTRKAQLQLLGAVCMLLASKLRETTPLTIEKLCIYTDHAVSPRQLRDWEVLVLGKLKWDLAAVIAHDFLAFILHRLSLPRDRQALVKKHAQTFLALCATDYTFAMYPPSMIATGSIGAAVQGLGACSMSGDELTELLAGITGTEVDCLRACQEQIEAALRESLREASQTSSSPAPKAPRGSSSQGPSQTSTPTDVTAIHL

| IC50 [1] | IC50 [2] | IC50 [3] | IC50 [4] | IC50 [5] | IC50 [6] | Compound |
| --- | --- | --- | --- | --- | --- | --- |
| < 200 nM | < 200 nM | < 200 nM | < 200 nM | 500 to 2000 nM | < 200 nM | CN1Cc2ccc(Nc3ncc4ccnc(N5CCC6(CCN(S(C)(=O)=O)C6)C5)c4n3)cc2C1 (stereo not drawn) [Compound 23, N-(2-methylisoindolin-5-yl)-8-(7-(methylsulfonyl)-2,7-diazaspiro[4.4]nonan-2-yl)pyrido[3,4-d]pyrimidin-2-amine] |
| < 200 nM | 500 to 2000 nM | 500 to 2000 nM | < 200 nM | 500 to 2000 nM | < 200 nM | CN1Cc2ccc(Nc3ncc4ccnc(N5CC6(C5)CS(=O)(=O)C6)c4n3)cc2C1 [Compound 24, 6-(2-((2-methylisoindolin-5-yl)amino)pyrido[3,4-d]pyrimidin-8-yl)-2-thia-6-azaspiro[3.3]heptane 2,2-dioxide] |
| 500 to 2000 nM | > 2000 nM | > 2000 nM | 200 to 500 nM | > 2000 nM | 200 to 500 nM | Cc1cc2cnc(Nc3cnn(C4CC5(C4)CN(C)C5)c3)nc2c(N2CC3(C2)CN(S(C)(=O)=O)C3)n1 [Compound 26, 6-methyl-N-(1-(2-methyl-2-azaspiro[3.3]heptan-6-yl)-1H-pyrazol-4-yl)-8-(6-(methylsulfonyl)-2,6-diazaspiro[3.3]heptan-2-yl)pyrido[3,4-d]pyrimidin-2-amine] |
| 500 to 2000 nM | 500 to 2000 nM | > 2000 nM | 500 to 2000 nM | 500 to 2000 nM | < 200 nM | Cc1cc2cnc(Nc3ccc4c(c3)CN(S(C)(=O)=O)C4)nc2c(N2CC3(CN(C)C3)C2)n1 [Compound 27, 6-methyl-8-(6-methyl-2,6-diazaspiro[3.3]heptan-2-yl)-N-(2-(methylsulfonyl)isoindolin-5-yl)pyrido[3,4-d]pyrimidin-2-amine] |
| < 200 nM | 500 to 2000 nM | 500 to 2000 nM | < 200 nM | 500 to 2000 nM | < 200 nM | Cc1cc2cnc(Nc3ccc(N4CC5(CN(C)C5)C4)cc3)nc2c(N2CCC(C#N)(C3CC3)C2)n1 (stereo not drawn) [Compound 28, 3-cyclopropyl-1-(6-methyl-2-((4-(6-methyl-2,6-diazaspiro[3.3]heptan-2-yl)phenyl)amino)pyrido[3,4-d]pyrimidin-8-yl)pyrrolidine-3-carbonitrile] |
| 500 to 2000 nM | > 2000 nM | > 2000 nM | < 200 nM | > 2000 nM | 200 to 500 nM | Cc1cc2cnc(Nc3ccc4c(c3)CN(C3CN(S(C)(=O)=O)C3)C4)nc2c(N2CC3(CN(C)C3)C2)n1 [Compound 29, 6-methyl-8-(6-methyl-2,6-diazaspiro[3.3]heptan-2-yl)-N-(2-(1-(methylsulfonyl)azetidin-3-yl)isoindolin-5-yl)pyrido[3,4-d]pyrimidin-2-amine] |
| < 200 nM | – | – | < 200 nM | 200 to 500 nM | < 200 nM | Cc1cc2cnc(NC3CCN(S(C)(=O)=O)CC3)nc2c(N2CC3(CN(C)CC3(F)F)C2)n1 [Compound 101, 8-(8,8-difluoro-6-methyl-2,6-diazaspiro[3.4]octan-2-yl)-6-methyl-N-(1-(methylsulfonyl)piperidin-4-yl)pyrido[3,4-d]pyrimidin-2-amine] |
| < 200 nM | – | – | < 200 nM | < 200 nM | < 200 nM | Cc1cc2cnc(NC3CCN(S(=O)(=O)C4CC4)CC3)nc2c(N2CC(F)(F)C3(CN(C)C3)C2)n1 [Compound 102, N-(1-(cyclopropylsulfonyl)piperidin-4-yl)-8-(8,8-difluoro-2-methyl-2,6-diazaspiro[3.4]octan-6-yl)-6-methylpyrido[3,4-d]pyrimidin-2-amine] |
| < 200 nM | – | – | < 200 nM | < 200 nM | < 200 nM | [2H]C([2H])([2H])N1CC2(CN(c3nc(C)cc4cnc(NC5CCN(S(C)(=O)=O)CC5)nc34)CC2(F)F)C1 [Example 12, 8-(8,8-difluoro-2-(methyl-d3)-2,6-diazaspiro[3.4]octan-6-yl)-6-methyl-N-(1-(methylsulfonyl)piperidin-4-yl)pyrido [3,4-d]pyrimidin-2-amine] |
| < 200 nM | 500 to 2000 nM | 500 to 2000 nM | < 200 nM | < 200 nM | – | O=S(=O)(C1CC1)N1CCC(Nc2ncc3cc(C(F)F)nc(N4CC5(CCNC5)C4)c3n2)CC1 [Example 46] |
| < 200 nM | – | – | < 200 nM | 200 to 500 nM | < 200 nM | Cc1cc2cnc(NC3CCN(S(C)(=O)=O)CC3)nc2c(C2CC(O)(C3CC3)C2)n1 (stereo not drawn) [Example 88, 1-cyclopropyl-3-(6-methyl-2-((1-(methylsulfonyl)piperidin-4-yl)amino)pyrido[3,4-d]pyrimidin-8-yl)cyclobutan-1-ol] |

— patent publication US20240034731A1, “AZA-QUINAZOLINE COMPOUNDS AND METHODS OF USE” (Iambic Therapeutics, Inc., priority 2022, published 2024)
